In patent US20110138488A1, “DEFICIENCY IN THE HISTONE DEMETHYLASE JHDM2A RESULTS IN IMPAIRED ENERGY EXPENDITURE AND OBESITY” (priority 2008, published 2011):

Experiments:
HIB1B cells = experiment: qRT-PCR and western blot of Jhdm2a in HIB1B cells after ISO; assay type: cell-based
Protocol: Given that cold-induced Ucp1 upregulation is intact in the PPARα-deficient mice (Kersten, et al., J. Clin. Invest. 103:1489 (1999)), the possibility was explored that Jhdm2a directly regulates Ucp1 expression in response to cold exposure. To ascertain that the effect of Jhdm2a on Ucp1 expression was cell-intrinsic, short-hairpin RNA (shRNA)-mediated was performed in the brown adipose cell line HIB1B using lentivirus-based shRNA. To generate a Jhdm2a knock-down HIB1B cell line, undifferentiated cells were infected with a lentiviral virus expressing a shRNA for Jhdm2a or control. The shRNA sequence for Jhdm2a was 5′-GCAGGTGTCACTAGCCTTAAT-3′ (SEQ ID NO:76). The differentiation of HIB1B cells was performed as previously described (Ross, et al., Proc. Natl. Acad. Sci. USA 89:7561 (1992)). […] Importantly, enforced overexpression of human JHDM2A in the knock-down cells partially rescued Ucp1 expression, see FIG. 36B. […] ISO-induced upregulation of Pgcla was also maintained in HIB1B knock-down cells, see FIG. 38.

Ucp1 enhancer = experiment: ChIP analysis at the Ucp1 enhancer in HIB1B cells after ISO treatment; assay type: cell-based; details: control HIB1B cells
From the text: The Jhdm2a knock-down-induced increase in H3K9me2 level could be partially rescued by overexpression of JHDM2A coupled with ISO treatment. *P<0.05.
Results are normalized to IgG, and are shown as the fold-enrichment relative to that in the control cells without ISO. *P<0.05.
The possibility that Jhdm2a directly regulates Ucp1 expression was subsequently examined. […] The binding was site-specific as Jhdm2a was not detected within the Ucp1 coding region, see FIG. 39, amplicon B).
In addition to removing the repressive H3K9me2 mark at the Ucp1 enhancer, Jhdm2a could contribute to Ucp1 activation by affecting the recruitment of transcription factors and co-activators. To examine this possibility, the effect of the loss of Jhdm2a on the recruitment of transcription factors (PPARγ, Rxrα and Atf2) and co-activators (Pgc1α, CBP/p300 and Src1) was analyzed. […] However, the enhanced binding by PPARγ and Rxra disappeared in the Jhdm2a knock-down cells, see FIG. 41. Similar results were also observed for the co-activators, see FIG. 42. […] Collectively, the data herein indicate that Jhdm2a contributes to β-adrenergic-stimulated Ucp1 activation by maintaining a low level of H3K9me2 at the Ucp1 enhancer region, and by augmenting the recruitment of PPARγ and Rxrα and their co-activators to the Ucp1 enhancer element.

primary myotubes = experiment: AICAR-induced respiration (oxygen consumption) in primary myotubes; assay type: cell-based, mouse; details: wild-type (Jhdm2a+/+) primary myotubes, 500 μM AICAR for 16 hours
Protocol: Jhdm2a^+/+ and Jhdm2a^−/− primary myotubes were treated with 500 μM AICAR for 16 hours. Rates of oxygen consumption were normalized to cell counts. *p<0.05. The effect of Jhdm2a deficiency on energy expenditure was analyzed. Systemic energy expenditure includes basal metabolic rate, physical activity, and adaptive thermogenesis (Spiegelman, Cell 104, 531 (2001)). Metabolic studies were performed using TSE LabMaster calorimetry Module (TSE-System) in the Clinical Nutrition Research Unit at the University of North Carolina. For respiration measurements, cultured cells were resuspended in PBS. Oxygen consumption was measured using a Clarke-type electrode (Diamond General) at baseline, and after treatment with 10 μM isoproterenol (ISO) (Wu, Cell 98, 115 (1999)). For normalization of the respiration rates, an aliquot of the cells was lysed and protein concentration was measured. […] The decreased energy expenditure of the Jhdm2a KO mice was not a result of abnormal metabolic hormone secretion. […] Activation of AMPK signaling was determined by treating C2C12 myotubes with 800 μM AICAR (Sigma Aldrich) for 16 hours. […] To gain further support for the involvement of JHDM2A in AMPK-mediated mitochondrial function, the effect of Jhdm2a-deficiency on AMPK activation-mediated respiration in primary myotubes was measured.

PGC-1α promoter = details: control C2C12 cells, AICAR treatment
Protocol: Wild-type and Jhdm2a knock-down C2C12 myotubes with or without AICAR treatment were used for ChIP followed by qPCR. Antibodies against H3K9me1 and H3K9me2 were used in the ChIP assays. Results were normalized to input, and are shown as fold of enrichment relative to that in the wild-type C2C12 cells without AICAR treatment. *p<0.05.
To determine whether PGC-1α is a direct target of JHDM2A, ChIP assays were performed. Ctrl or Jhdm2a KD C2C12 myotubes with or without AICAR treatment were used for ChIP analysis with histone modification-specific antibodies and anti-JHDM2A as described previously (Okada, Nature 450, 119 (2007)).

Structure (SMILES): CC(C)NCC(O)c1ccc(O)c(O)c1 (centres unmarked) [ISO, isoproterenol]
- Jhdm2a messenger RNA and protein levels (HIB1B cells): upregulated
- H3K9me2 levels at the Jhdm2a binding site of the Ucp1 enhancer (Ucp1 enhancer): specifically decreased
- binding of PPARγ, Rxrα and Atf2 to the Ucp1 enhancer (Ucp1 enhancer): increased

Structure (SMILES): NC(=O)c1ncn([C@@H]2O[C@H](CO)[C@@H](O)[C@H]2O)c1N [AICAR]
- respiration (rate of oxygen consumption) (primary myotubes): increased respiration
- H3K9me1 and H3K9me2 levels at the PGC-1α promoter (PGC-1α promoter): decreased
